± gives the expanded uncertainty stated by the source.
Details: Liquid; for mass density: 303.15 K, 101.33 kPa, Vibrating tube method; for vapor or sublimation pressure: Ebulliometric method (Recirculating still)

CSSC [2,3-dithiabutane]
mass density: 1051.14 ± 0.14 kg/m3
vapor or sublimation pressure (353.42 K): 40 ± 0.13 kPa
vapor or sublimation pressure (382.87 K): 101.33 ± 0.14 kPa

CCCCO [butan-1-ol]
mass density: 801.92 ± 0.14 kg/m3
vapor or sublimation pressure (366.81 K): 40 ± 0.14 kPa
vapor or sublimation pressure (390.72 K): 101.33 ± 0.14 kPa

CCO [ethanol]
mass density: 780.78 ± 0.15 kg/m3
vapor or sublimation pressure (329.63 K): 40 ± 0.15 kPa
vapor or sublimation pressure (351.51 K): 101.33 ± 0.15 kPa

CO [methanol]
mass density: 781.81 ± 0.15 kg/m3
vapor or sublimation pressure (315.8 K): 40 ± 0.15 kPa
vapor or sublimation pressure (337.97 K): 101.33 ± 0.15 kPa

CCCO [propan-1-ol]
mass density: 795.54 ± 0.15 kg/m3
vapor or sublimation pressure (347.65 K): 40 ± 0.15 kPa
vapor or sublimation pressure (370.23 K): 101.33 ± 0.15 kPa

From the NIST ThermoML archive (doi:10.1021/acs.jced.7b00078)
